Data on one compound can be found in patent US11066408B2, “Crystalline binary sodium salts of 5-methyl-(6S)-tetrahydrofolic acid with organic bases” (MERCK PATENT GMBH, priority 2017, dated 2021).

The procedure of the data set: The measurement of the kinetic solubility was conducted as described in the experimental part.
0.5 ml of purified/de-ionized water (for instance water for chromatography) is added.
2.535 ml of purified/de-ionized water (for instance water for chromatography) is added to the solid using an adjustable volumetric pipette. The mixture is vigorously agitated at room temperature and briefly sonicated.
Then 0.785 ml of purified/de-ionized water is added.
Then 1.0 ml of purified/de-ionized water is added.

For `CN1c2c([nH]c(N)nc2=O)NC[C@@H]1CNc1ccc(C(=O)N[C@@H](CCC(=O)[O-])C(=O)[O-])cc1.[Ca+2]` [calcium salt of 5-methyl-(6S)-tetrahydrofolic acid], the “kinetic solubility in water” value (purified/de-ionized water, room temperature, agitated (briefly sonicated), not assay corrected) was “smaller than 10 mg per 1 ml of water”. The “time until a clear solution is obtained” value (weighed solid plus water, agitated at room temperature) was “No clear solution can be obtained”.
